This is an account of results in a melting point compilation (Tetko et al.; mined from patent text by program, amines drawn as free bases though some values may be those of a salt).

As a reminder, the melting point is the temperature of the solid-liquid transition. Regarding `O=C(NC1CCC2(CC1)CSC1=C(O2)c2ccccc2C(=O)C1=O)Oc1cccc(C(F)(F)F)c1` (configuration not stated), the melting point is 198 to 199 °C.

Consider `Cc1cc(C(N)=O)cc(C)c1C(=O)O`, for which the melting point was in the range of 238 to 240 °C.

`CCc1nc2c(Cl)nc(C)cc2n1-c1ccc(CCNC(=O)NS(=O)(=O)c2ccc(C)cc2)cc1` returned a melting point of 163 °C.

`Cc1ccc2[nH]c(=O)n(C(C)(C)C(=O)OCC(=O)c3ccccc3)c(=O)c2c1` gave a melting point of 189 to 191 °C.

Turning to `CCCC#Cc1cc(Cl)cc2c1OC(C(F)(F)F)C(C(=O)O)=C2` (configuration not stated), the melting point lay within 168 to 171 °C.

`O=C(O)c1ccc(CNC(=O)C2Cc3ccccc3N2S(=O)(=O)c2ccc(-c3ccc(F)cc3F)cc2)cc1` (configuration not stated) returned a melting point of 115 °C.

`CCCCNCCC(=O)Nc1ccc2c(c1)C(=O)c1cc(NC(=O)CCNCCCC)ccc1C2=O` returned a melting point of 168 °C.

With `Nc1ncc(Sc2ccc(O)cc2)s1`, the melting point is 187 to 188 °C.

The molecule `CCOC(=O)CN(C(=O)N1CCN(c2cc(C)cc(C)c2)CC1)c1cc(C(C)O)c(C)nc1OC` (configuration not stated) showed a melting point of 68 to 70 °C.

On to `CN1C(=O)C([S-])=C(SC(N)=[NH2+])C1=O`, for which the melting point was in the range of 150 to 152 °C.

With `COc1ccc2c(c1)c(C1CCN(Cc3ccc(OC)c(C(=O)O)c3)CC1)cn2CCc1ccsc1`, the melting point fell in the range of 229 to 230 °C.

The molecule `c1ccc(C2CN3CCN=C3S2)cc1` (configuration not stated) returned a melting point of 68 to 70 °C.

As to `Cc1cc(Nc2nccc(-c3sc(N)nc3C)n2)ccc1N1CCOCC1`, the melting point was 256 to 257 °C.

`CN1C2CCC1CN(C(=O)c1ccco1)C2` showed a melting point of 106 °C.

Turning to `CC(C)C(C)(C#N)NC(=O)c1ccccc1C(=O)O` (configuration not stated), the melting point was in the range of 154 to 155 °C.

`O=C1OCCN1CCN1CCN(C2Cc3cc(F)ccc3Sc3ccccc32)CC1` (configuration not stated) gave a melting point of 158 to 159 °C.

The molecule `Cc1ccc(S(=O)(=O)NC(C)(C)CO)cc1NC(=O)c1cnn2c(C(F)F)cc(-c3ccc(C(F)(F)F)cc3)nc12` registered a melting point of 214 °C.

Regarding `CC(C)(C)c1cc(-n2nc3ccc(S(=O)(=O)c4ccc5nn(-c6cc(C(C)(C)C)cc(C(C)(C)C)c6O)nc5c4)cc3n2)c(O)c(C(C)(C)C)c1`, the melting point was over 300 °C.

With `CC(=O)NC1c2ccccc2-c2[nH]c(=O)c3nccn3c21` (configuration not stated), the melting point is 330 °C.

`CCOC(=O)C1n2c3ccccc3c3c4c(c5c6ccccc6n(c5c32)CS1(=O)=O)C(=O)NC4=O` (configuration not stated) yielded a melting point of 298 to 300 °C.

`COC1=C(C)C(=O)c2ccccc2C1=O` displayed a melting point of 93 to 94 °C.

In turn, `CC(=O)SCC(C(=O)NCCc1ccncc1)C(F)(F)F` (configuration not stated) displayed a melting point of 87 to 89 °C.

For `Nc1ccc2ccc(Oc3ccccc3)nc2n1`, the melting point stood at 196 °C.

Molecule `CC1(C)c2cc(O)ccc2OC1CO` (configuration not stated) showed a melting point of 79 to 80 °C.

Regarding `COC(=S)Nc1ccc(OCc2nc3ccccc3s2)cc1`, the melting point was in the range of 160 to 162 °C.

`COc1ccc2[nH]c(=O)cc(CCCl)c2c1` showed a melting point of 231 to 232 °C.

For the molecule `COCc1cnc2c([N+](=O)[O-])cc(C)cc2c1Cl`, the melting point is 107 to 111 °C.

`CCON=C(CC)C1=C(O)CC(c2ccc(NS(C)(=O)=O)cc2)CC1=O` (configuration not stated) came in with a melting point of 115 to 116 °C.

The molecule `CCCCCN1OCCN(c2ccc(Cl)c(Cl)c2)C1=O` showed a melting point of under 40 °C.

The molecule `Cc1oc(-c2ccccc2)nc1COc1ccc(CCCO)cc1` displayed a melting point of 70 to 71 °C.

In the case of `O=C(c1ccc(O)cc1)c1cc(C(=O)c2ccc(O)cc2)cc([N+](=O)[O-])c1`, the melting point was in the range of 230 to 232 °C.

`CC(C)Oc1c(C(N)=O)oc2ccccc12` gave a melting point of 82 to 83 °C.

`NC(=O)c1cnccc1C(F)(F)F` gave a melting point of 163 °C.

On to `CCc1nc2c(C)c(NS(C)(=O)=O)cnc2n1-c1ccc(CCNC(=O)NS(=O)(=O)c2ccc(C)cc2)cc1`, for which the melting point was 166 °C.

With `COCCc1nc2c(N)nc3ccccc3c2n1CC(C)(C)CNC(=O)Nc1ccccc1`, the melting point lay in the range of 125 to 130 °C.

Molecule `COc1cc(C(=O)NC2CC(C)(C)N(C)C(C)(C)C2)ccc1-c1cc2cc(Cl)c(Cl)cc2[nH]1` gave a melting point of 260 °C.

Turning to `O=C(NC(=O)c1c(Cl)cccc1Cl)Nc1ccc(-c2ccc(Cl)cc2)cn1`, the melting point is 230 to 233 °C.

Molecule `CN(C)c1cc2nc(C(C)(C)C)sc2cc1[N+](=O)[O-]` had a melting point of 65 to 68 °C.

Take `Cc1nc(-c2cccc(C(=O)N[C@H]3CC[C@H](CCN4CCN(c5nccc6c5CCO6)CC4)CC3)c2)no1`: the melting point was 218 °C.

In the case of `Cn1ncc(C=O)c1-c1ccc([N+](=O)[O-])o1`, the melting point turned out to be 130 °C.

Molecule `Cc1cccc(NC(=O)NC2N=C(c3ccccc3F)c3ccccc3N(CCC3OCCO3)C2=O)c1` (racemic) registered a melting point of 214 to 215 °C.

For `COC(=O)c1nc2c(NC(=O)C(C)(C)C)cccn2c1C`, the melting point was found to be 132 °C.

Molecule `C=C1CCN(S(=O)(=O)c2ccc(Cl)c(C(=O)O)c2)CC1` came in with a melting point of 157 to 160 °C.

`Nc1ccn(C2CCCCC2)c(=O)n1` gave a melting point of 213 to 231 °C.

`Cc1nnc2n1-c1ccc(C#Cc3cccs3)cc1C(c1ccccc1Cl)=NC2` yielded a melting point of 160 to 163 °C.

Regarding `CC(C)(CO)NS(=O)(=O)c1cnc(NC(=O)c2cnn3c(C(F)(F)F)cc(-c4ccc(C(F)(F)F)cc4)nc23)s1`, the melting point stood at 292 °C.

Consider `COc1ccc(-c2cncn2-c2ccc(S(=O)(=O)NC(C)(C)C)cc2)cc1F`, for which the melting point was 229 to 232 °C.

As for `CCOC(=O)N1CCC(=C2c3ccccc3CCn3c(CO)cnc32)CC1`, the melting point was 192 °C.

With `O=C(O)c1cc(=O)c2cc3[nH]c(=O)oc3cc2[nH]1`, the melting point was over 300 °C.

Regarding `c1ccc(OC2CCN(CCc3c[nH]c4ccccc34)CC2)cc1`, the melting point was 123 to 125 °C.

In turn, `CC[C@H](NS(=O)(=O)c1ccc(OC)cc1)C(=O)OC(C)(C)C` gave a melting point of 82 °C.

`CC(C)(CO)c1ccc(C(=O)Nc2cn3cc(-c4cn[nH]c4)ccc3n2)cc1` showed a melting point of 293 to 296 °C.

The molecule `Cn1cccc1C(=O)Nc1cccc(/C=C/C(=O)O)c1` showed a melting point of 202 to 204 °C.

Molecule `CC(C)n1nc(-c2c(-c3ccccc3)nn3ccc(OCCN4CCOCC4)cc23)ccc1=O` showed a melting point of 160 to 162 °C.

Consider `CN(CCc1ccccc1)C(=O)Cn1cc(CCC(=O)O)c2cc(OCc3ccccc3)ccc21`, for which the melting point is 122 to 125 °C.

In turn, `O=C(Oc1ccccc1)c1ccc(NS(=O)(=O)c2ccccc2)cc1Cl` showed a melting point of 130 to 140 °C.

As to `COc1ccc(C(=O)O)c2c1oc1ccc(Cl)cc12`, the melting point was 264 to 276 °C.

`CCOC(=O)Cc1ccc(CC(=O)c2c(O)c3cccnc3n(-c3ccccc3)c2=O)cc1` displayed a melting point of 156 to 158 °C.

`Clc1ccc(NC2COc3ccc(Br)cc32)c(Cl)c1` (configuration not stated) returned a melting point of 112 to 113 °C.

Regarding `Cc1nn2c(=O)c(CCCl)c(C)nc2s1`, the melting point was 118 °C.

`CC1(C=O)CC1(c1ccc(F)cc1)c1ccc(F)cc1` (configuration not stated) displayed a melting point of 110 to 113 °C.

Regarding `C=C(C)C(=O)Oc1cccc(-c2cccc(OC(=O)C(=C)C)c2)c1`, the melting point amounted to 70 °C.

On to `CSc1sc(C2NCCO2)c2c1C(=O)CC(C)(C)C2` (configuration not stated), for which the melting point lay in the range of 190 to 193 °C.

`COC(C)(OC)OC(=O)N[C@@H](Cc1cn(S(=O)(=O)c2ccc(C)cc2)cn1)C(=O)O` came in with a melting point of 120 °C.

In the case of `N#Cc1ccc(Oc2cccc(F)c2)cc1`, the melting point lay within 67 to 69 °C.

In turn, `CCOC(=O)c1oc2cc(O)ccc2c(=O)c1C#N` showed a melting point of 262 to 264 °C.

The molecule `CCOCC(OC(C)=O)C1CC(=O)C2(C)CCC3C(CCC4=CC(=O)C=C(C)C43C)C12` (configuration not stated) had a melting point of 155 to 157 °C.

Molecule `Cc1ccc(Sc2cncc3sc(C(=O)O)cc23)cc1` registered a melting point of 272 to 274 °C.

Take `Cc1cc([N+](=O)[O-])c(NC(C)C(=O)N(C)O)c([N+](=O)[O-])c1` (configuration not stated): the melting point lay within 171 to 172 °C.

`CC(=O)c1cc(NS(C)(=O)=O)ccc1F` returned a melting point of 120 to 123 °C.

The molecule `OCC1OC(n2cnc3c(Nc4ccc(Cl)cc4)ccnc32)C(O)C1O` (configuration not stated) gave a melting point of 215 °C.

For the molecule `O=C(Nc1ccc(Oc2ccnc(N3CCCC3)n2)c2ccccc12)c1cc(F)cc(N2CCCCC2)c1`, the melting point was in the range of 111 to 113 °C.

On to `CCCNc1cc(-c2c(-c3cccc(C)c3)nc3cccnn23)ccn1`, for which the melting point was in the range of 128 to 129 °C.

Consider `CCCN(C(=O)OCC(C)C)C1Cc2ccc(C3=NNC(=O)CC3)cc2C1` (configuration not stated), for which the melting point lay within 161 to 162 °C.

For the molecule `COc1ccc(C(C)(O)c2sc(C)nc2C)cc1` (configuration not stated), the melting point fell in the range of 114 to 116 °C.

On to `CCOc1ccc(C(=O)N(C)Cc2cccc(-c3ccc(CC4SC(=O)NC4=O)cc3)c2)cc1` (configuration not stated), for which the melting point turned out to be 182 °C.

The molecule `Nc1c(Cl)cc(C(O)CNCCCCCCSCCc2ccccn2)cc1Cl` (configuration not stated) had a melting point of 83 to 84 °C.

`CC(C)(CO)NS(=O)(=O)c1ccc(Cl)c(NC(=O)c2cnn3c(C(F)F)cc(-c4ccc(C(F)(F)F)cc4)nc23)c1` displayed a melting point of 234 °C.

`O=c1n(CC(O)(Cn2cncn2)c2ccc(F)cc2F)cnn1-c1ccc(OC(F)(F)F)cc1` (racemic) yielded a melting point of 128 to 130 °C.

In the case of `CC(C)C[C@@H](C(=O)O)N1C(=O)NC(C(F)(F)F)(C(F)(F)F)C1=O`, the melting point lay within 154 to 156 °C.

The molecule `CN1C(=O)C2CC(c3ccccc3)(C2)C1=O` yielded a melting point of 175 to 176 °C.

For the molecule `CSC[C@H](NCc1cc(Br)ccc1N)C(=O)O`, the melting point amounted to 228 °C.

As to `COCCOc1ccnc2c(NC(=O)c3c(Cl)cccc3Cl)cccc12`, the melting point was in the range of 150 to 152 °C.

In turn, `c1cnc2ccc(Cn3nnc4ccc(-c5ccc(N6CCOCC6)nc5)nc43)cc2c1` returned a melting point of 183 to 185 °C.

As for `COCC12CCC(O)CC1CCC1C3CCC(=O)C3(C)CCC12` (configuration not stated), the melting point lay within 172 to 174 °C.

Consider `Cn1c(=O)nc(-c2ccccc2)c2ccsc21`, for which the melting point lay within 256 to 258 °C.

Regarding `COC(=O)C1=C(NCc2ccccc2)C(=O)O[C@@H]1C`, the melting point lay within 68 to 70 °C.
